Measured values as given in the Bradley open melting point set (2014).
Several values for one entry are separate records, joined by “and”; a condition that tells them apart may be missing. Identical values can stand only once. Counter-ions that a name gives are not always drawn.

Structure (SMILES) | melting point
CN(C)C1=NC(=O)C(c2ccccc2)O1 (stereo not drawn) [thozalinone] | 133 °C
C/C=C/CCC [trans-2-hexene] | -133 °C
C/C=C/CC [trans-2-pentene] | -140 °C
CC(=O)/C=C/c1ccccc1 [trans-4-phenyl-3-buten-2-one] | 41 °C
ClC1=C(Cl)C2(Cl)C3C(Cl)C(Cl)CC3C1(Cl)C2(Cl)Cl (stereo not drawn) [trans-Chlordane] | 106 °C
ClC1=C(Cl)C2(Cl)C3C(Cl)C(Cl)CC3C1(Cl)C2(Cl)Cl (stereo not drawn) [trans-gamma-chlordane] | 106 °C
CCCCP(CCCC)CCCC [tri-n-butylphosphine] | -65 °C
CCCCCCCCN(CCCCCCCC)CCCCCCCC [tri-n-octylamine] | -39 °C
CC(=O)O[Si](C)(OC(C)=O)OC(C)=O [triacetoxy(methyl)silane] | 43 °C
OCCN(CCO)CCO [triethanolamine] | 20 °C
CCOC(=O)CC(O)(CC(=O)OCC)C(=O)OCC [triethyl citrate] | -55 °C
CC[SiH](CC)CC [triethylsilane] | -157 °C
O=C(O)C(F)(F)F [trifluoroacetic acid] | -15 °C
O=S(=O)(O)C(F)(F)F [trifluoromethanesulfonic acid] | -40 °C
COB(OC)OC [trimethyl borate] | -34 °C
CC(C)(C)C=O [trimethylacetaldehyde] | 6 °C
CC(C)(C)C(=O)Cl [trimethylacetyl chloride] | -57 °C
C[Si](C)(C)N=C=S [trimethylsilyl isothiocyanate] | -33 °C
CCCCCCCCCCC(=O)O [undecanoic acid] | 28.6 °C
C[C@H](CCC(=O)O)[C@H]1CC[C@H]2[C@@H]3[C@@H](O)C[C@@H]4C[C@H](O)CC[C@]4(C)[C@H]3CC[C@]12C [ursodeoxycholic acid] | 203 °C
CC(CCC(=O)O)C1CCC2C3C(O)CC4CC(O)CCC4(C)C3CCC12C (stereo not drawn) [ursodiol] | 203 °C
CCCCC#N [valeronitrile] | -96 °C
COc1ccc(C=O)cc1OC [veratraldehyde] | 44 °C
COc1ccccc1OC [veratrole] | 22 °C
C=CC1(C(C)CCC)C(=O)NC(=O)NC1=O (stereo not drawn) [vinylbital] | 90 °C

Results, then the compound that gave them:

melting point | Structure (SMILES)
167 °C | OB(O)c1ccsc1 [thiophene-3-boronic acid]
317 °C | Cc1c[nH]c(=O)[nH]c1=O [thymine]
129 °C | CCCCNC(=O)NS(=O)(=O)c1ccc(C)cc1 [tolbutamide]
218 °C | O=C(O)/C=C/c1ccccc1Br [trans-2-bromocinnamic acid]
247 °C | O=C(O)/C=C/c1ccccc1[N+](=O)[O-] [trans-2-nitrocinnamic acid]
58 °C | COc1ccc(/C=C/C=O)cc1 [trans-4-methoxycinnamaldehyde]
125 °C | C(=C\c1ccccc1)/c1ccccc1 [trans-Stilbene]
125 °C and 124 °C | C(=C\c1ccccc1)/c1ccccc1 [trans-stilbene]
201 °C | COc1cc(Cc2cnc(N)nc2N)cc(OC)c1OC [trimethoprim]
106 °C | SC(c1ccccc1)(c1ccccc1)c1ccccc1 [triphenylmethyl mercaptan]
146 °C | COc1cccc(OC)c1P(c1c(OC)cccc1OC)c1c(OC)cccc1OC [tris(2,6-dimethoxyphenyl)phosphine]
200 °C | COc1ccccc1P(c1ccccc1OC)c1ccccc1OC [tris(2-methoxyphenyl)phosphine]
114 °C | COc1cccc(P(c2cccc(OC)c2)c2cccc(OC)c2)c1 [tris(3-methoxyphenyl)phosphine]
74 °C | FC(F)(F)c1ccc(P(c2ccc(C(F)(F)F)cc2)c2ccc(C(F)(F)F)cc2)cc1 [tris[4-(trifluoromethyl)phenyl]phosphine]
102 °C | NC(c1ccccc1)(c1ccccc1)c1ccccc1 [tritylamine]
116 °C | CCCCC(=O)N(Cc1ccc(-c2ccccc2-c2nnn[nH]2)cc1)C(C(=O)O)C(C)C (stereo not drawn) [valsartan]
214 °C | COc1cc(C(=O)O)ccc1O [vanillic acid]
245 °C | Nc1c2c(nc3ccccc13)CCCC2O (stereo not drawn) [velnacrine]
-28 °C | CC(=O)Oc1c(C)c(C)c2c(c1C)CC[C@@](C)(CCC[C@H](C)CCC[C@H](C)CCCC(C)C)O2 [vitamin e acetate]
245 °C | NC(=O)C1c2ccccc2Oc2ccccc21 [xanthene-9-carboxamide]
176 °C | O=c1c2ccccc2oc2ccccc12 [xanthone]
124 °C | OC1c2ccccc2Oc2ccccc21 [xanthydrol]
57 °C | Cc1cccc(OCC(O)CNC(C)(C)C)c1C (stereo not drawn) [xibenolol]
